Laboratory results: PMC2734176, “The Aurora Kinase in Trypanosoma brucei Plays Distinctive Roles in Metaphase-Anaphase Transition and Cytokinetic Initiation” (PLoS Pathogens, 2009)

Target: T1, TbAUK1 (recombinant GST-tagged TbAUK1) (Trypanosoma brucei, UniProt Q384J7)
T1 construct: gene AUK1; no tag cleavage mentioned; tested without TbCPC1/TbCPC2
T1 sequence (Q384J7 1-309): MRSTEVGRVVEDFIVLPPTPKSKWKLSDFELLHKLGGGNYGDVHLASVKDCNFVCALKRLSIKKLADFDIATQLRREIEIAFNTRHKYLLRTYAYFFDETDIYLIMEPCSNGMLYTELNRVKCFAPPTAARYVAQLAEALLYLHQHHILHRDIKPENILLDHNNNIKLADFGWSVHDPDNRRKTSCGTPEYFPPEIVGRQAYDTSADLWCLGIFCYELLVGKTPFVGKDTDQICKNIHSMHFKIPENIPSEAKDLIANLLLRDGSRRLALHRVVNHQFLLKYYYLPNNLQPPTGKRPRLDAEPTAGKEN
Experiment: in vitro kinase assay, […] phosphorylation of GST-histone H3, SDS-PAGE and Phosphor-Imager
Type: biochemical

Cc1cc(Nc2cc(N3CCN(C)CC3)nc(Sc3ccc(NC(=O)C4CC4)cc3)n2)[nH]n1 [VX-680]
IC50: 190 nM
